Laboratory results as given in patent US9399627B2, “Substituted macrocyclic compounds having proteasome inhibitory activity” (THE REGENTS OF THE UNIVERSITY OF CALIFORNIA, priority 2012, dated 2016).

Experiments:
PC3 prostate cancer = experiment: NCI 60-cell screen dose-response study, PC3; format: cell-based
Procedure: (§1) TIR-199 activity in inhibiting cancer cell growth was tested in a National Cancer Institute (“NCI”) 60-cell screen in triplicate (see FIGS. 3-14).
(§2) The NCI 60-cell screens were initially tested with 10 μM dose of TIR-199. […] Due to the initial results being so promising, a full dose-response study was performed in triplicate with the NCI cell lines.

HCC-2998 colon cancer = experiment: NCI 60-cell screen dose-response study, HCC-2998; format: cell-based
Procedure: as §1, §2

TK-10 renal cancer = experiment: NCI 60-cell screen dose-response study, TK-10; format: cell-based
Procedure: as §1, §2

BT-549 breast cancer = experiment: NCI 60-cell screen dose-response study, BT-549; format: cell-based
Procedure: as §1, §2

60 cancerous cell lines = experiment: NCI 60-cell screen; format: cell-based
Procedure: as §1, §2

cancerous cell lines = experiment: Confirmatory in vitro cell-based screens; settings: confirmatory in-vitro experiments in various laboratories
[1] = system: multiple myeloma cell lines; experiment: Studies with multiple myeloma cell lines; format: cell-based
OVCAR-5 = experiment: NCI 60-cell screen dose-response study, OVCAR-5; format: cell-based; settings: Homo sapiens, dose-response study in triplicate, most sensitive cell line
Procedure: as §1, §2

[2] = system: NCI-H226 lung cancer line; experiment: NCI 60-cell screen dose-response study, NCI-H226; format: cell-based
Procedure: as §1, §2

RXF 393 renal cancer = experiment: NCI 60-cell screen dose-response study, RXF 393; format: cell-based
Procedure: as §1, §2

With `CCCCCCCCCCCCNC(=O)N[C@H](C(=O)N[C@H]1/C=C/CCNC(=O)/C=C/[C@H](C)NC1=O)C(C)C` [TIR-199] the “sensitivity of cell line” value (PC3 prostate cancer) was “particularly sensitive”, the “sensitivity of cell line” value (HCC-2998 colon cancer) was “particularly sensitive” and the “sensitivity of cell line” value (TK-10 renal cancer) was “particularly sensitive”. For the same molecule, the “sensitivity of cell line” value (BT-549 breast cancer) was “particularly sensitive”, the “growth suppression and/or apoptosis induction in dose response study” value (60 cancerous cell lines; 60 cancerous cell lines, varying log10 amounts (FIG. 3)) was “suppressed the growth and/or induced apoptosis in every cancerous cell line” and the “suppression of cancer cell growth” value (60 cancerous cell lines; initial single dose, 10 μM) was “effectively suppressed cancer cell growth universally across the cell lines”. For the same molecule, the “effectiveness on kidney cancer activity” value (60 cancerous cell lines; kidney (renal) cancer lines) was “surprisingly potent”, the “potency against cancerous cell lines” value (cancerous cell lines) was “low nanomolar potency” and the “potency compared with bortezomib” value [1] was “nearly as potent as the FDA approved proteasome inhibitor, bortezomib”. For the same molecule, the IC50 (OVCAR-5) was 10 nM, the “potency against cell line” value [2] was “Particular potency” and the “sensitivity of cell line” value (RXF 393 renal cancer) was “particularly sensitive”.
